Data taken from patent US20110039904A1, “Alcohol alkoxylates, agents comprising the same and use of the alcohol alkoxylates as adjuvants in the agrochemical field” (BASF SE, priority 2008, published 2011).

Tested on: leaf rust of wheat "Puccinia recondita"
Assay: Biotest: curative control of leaf rust of wheat (fungicidal efficacy of epoxiconazole with adjuvant)
Type: in vivo, Puccinia recondita on wheat seedlings "Kanzler"
Settings: 50 ppm epoxiconazole without adjuvant; sprayed 2 days after inoculation; rated after 10 days; wheat seedlings, greenhouse
Experimental: 125 g/l epoxiconazole were ground together with in each case 20 g/l dispersant (Atlas G 5000^1, Synperonic A^1) and 50 g/l propylene glycol in aqueous medium in a stirred-ball mill (dyno-mill) until a particle size of 80% <2 μm was reached. To the mixture were added 3 g/l per liter antifoam, for example Rhodorsil 426^2, 3 g/l thickener, for example Rhodopol 23^2, and a biocide, for example Acticide MBS^3. The respective adjuvant, in aqueous solution or in a solvent, for example Solvesso, was stirred into this mixture, so that the final concentration of the formulation is composed of 62.5 g/l epoxiconazole and 125 g/l adjuvant.
Biotest (curative control of leaf rust of wheat):
Leaves of wheat seedlings of the species “Kanzler” which had been grown in pots were dusted, in the two-leaf stage, with spores of leaf rust of wheat “Puccinia recondita” and incubated for 2 days in the greenhouse at high atmospheric humidity. In fully automated spray cabins, the plants were then sprayed with the formulations which comprised the active ingredients and adjuvants specified hereinbelow. The spray mixtures comprised 50 ppm epoxiconazole and 100 ppm adjuvant. The ratio active ingredient to adjuvant was, accordingly, 1:2. […] After 10 days, the extent of the leaf rust disease was determined visually as disease percent of the total leaf area. 3 pots were evaluated for each combination.

For `Fc1ccc([C@]2(Cn3cncn3)O[C@H]2c2ccccc2Cl)cc1` (racemic) [Epoxiconazole, epoxiconazole], the “% infection (leaf rust disease percent of the total leaf area, determined visually)” value was 23%.
